Measurements: ChEMBL document CHEMBL5360672, “Identification of Novel Dual-Target Estrogen Receptor α Degraders with Tubulin Inhibitory Activity for the Treatment of Endocrine-Resistant Breast Cancer” (J Med Chem, 2023)
Active and inactive are the calls of the source. The calls are words filed in the database; no cut-off is given here.

Key:
[1] = Selectivity index, ratio of IC50 for cytotoxicity against human MCF-10A cells to IC50 for antiproliferative activity against human MCF7 cells; assay type: toxicity, cell-based; conditions: MCF-10A cells and MCF7 cells, read-out: Ratio IC50
[2] = target: T1, Estrogen receptor (Homo sapiens) (UniProt P03372); assay: Binding affinity to human ERalpha assessed as relative binding affinity incubated under vibration for 1 min followed by 2 hrs incubation under dark condition by fluorescence polarization assay relative to estradiol; conditions: time 121.0 min
T1 sequence (whole entry): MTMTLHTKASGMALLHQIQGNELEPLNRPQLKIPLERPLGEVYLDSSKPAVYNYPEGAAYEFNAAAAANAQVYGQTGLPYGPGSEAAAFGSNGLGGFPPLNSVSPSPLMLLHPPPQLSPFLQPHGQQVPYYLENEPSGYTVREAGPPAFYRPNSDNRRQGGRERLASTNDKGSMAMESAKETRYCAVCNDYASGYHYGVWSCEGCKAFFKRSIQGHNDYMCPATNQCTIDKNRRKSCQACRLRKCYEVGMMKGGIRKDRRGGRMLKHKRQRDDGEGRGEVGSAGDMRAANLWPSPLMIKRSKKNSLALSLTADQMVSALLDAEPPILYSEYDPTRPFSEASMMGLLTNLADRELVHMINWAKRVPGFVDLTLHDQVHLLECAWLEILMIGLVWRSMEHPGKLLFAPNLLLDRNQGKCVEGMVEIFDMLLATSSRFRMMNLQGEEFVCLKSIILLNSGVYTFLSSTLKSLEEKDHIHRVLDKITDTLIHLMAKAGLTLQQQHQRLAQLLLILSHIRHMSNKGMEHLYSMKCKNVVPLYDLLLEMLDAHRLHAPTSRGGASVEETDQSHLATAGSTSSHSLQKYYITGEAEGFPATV

[3] = target: T1, Estrogen receptor (Homo sapiens); assay: Induction of ERalpha degradation in human MCF7 cells at 5 uM incubated for 24 hrs by Western blot analysis; assay type: cell-based
[4] = target: Estrogen receptor beta (Homo sapiens) (UniProt Q92731); assay: Binding affinity to human ERbeta assessed as relative binding affinity incubated under vibration for 1 min followed by 2 hrs incubation under dark condition by fluorescence polarization assay relative to estradiol; conditions: time 121.0 min
[5] = target: T2, Tubulin (Homo sapiens) (UniProt P68371+Q9H4B7+P0DPH7+P68366+Q13509+Q71U36+P04350+Q3ZCM7+P07437+P68363+Q9BQE3+Q6PEY2+Q13885+Q9BVA1+Q9BUF5); assay: Inhibition of tubulin polymerization (unknown origin) at 30 uM incubated for 60 mins by microplate reader analysis; assay type: protein-complex assay
[6] = Cytotoxicity against human MCF-10A cells assessed as inhibition of cell proliferation incubated for 72 hrs by CCK8 assay; assay type: toxicity, cell-based
[7] = tested on: T47D; assay: Antiproliferative activity against ERalpha positive human T47D cells assessed as inhibition of cell proliferation incubated for 72 hrs by CCK8 assay; assay type: functional, cell-based
[8] = species: Homo sapiens; assay: Selectivity ratio of relative binding affinity for human ERalpha to relative binding affinity to human ERbeta
[9] = tested on: MDA-MB-231; assay: Antiproliferative activity against ERalpha negative human MDA-MB-231 cells assessed as inhibition of cell proliferation incubated for 72 hrs by CCK8 assay; assay type: functional, cell-based; conditions: MDA-MB-231, 72 h
[10] = tested on: MCF7; assay: Antiproliferative activity against ERalpha positive human MCF7 cells assessed as inhibition of cell proliferation incubated for 72 hrs by CCK8 assay; assay type: functional, cell-based; conditions: MCF7, 72 h
[11] = Antiproliferative activity against human Tamoxifen-resistant LCC2 cells assessed as inhibition of cell proliferation incubated for 72 hrs by CCK8 assay; assay type: functional, cell-based
[12] = tested on: T47D; assay: Antiproliferative activity against human T47D cells harboring ERalpha D538G mutant assessed as inhibition of cell proliferation incubated for 72 hrs by CCK8 assay; assay type: functional, cell-based
[13] = tested on: T47D; assay: Antiproliferative activity against human T47D cells harboring ERalpha Y537S mutant assessed as inhibition of cell proliferation incubated for 72 hrs by CCK8 assay; assay type: functional, cell-based
[14] = target: T2, Tubulin (Homo sapiens); assay: Disruption of microtubule network in human LCC2 cells assessed as ruptured microtubule network at 4 uM incubated for 48 hrs by DAPI staining based confocal laser scanning microscopic analysis; assay type: cell-based
[15] = target: T2, Tubulin (Homo sapiens); assay: Disruption of microtubule network in human MCF7 cells assessed as chaotic microtubule network at 2 uM incubated for 48 hrs by DAPI staining based confocal laser scanning microscopic analysis; assay type: cell-based
[16] = tested on: MCF7; assay: Induction of cell cycle arrest in human MCF7 cells assessed as increase in G2/M phase cells at 0 to 8 uM incubated for 48 hrs by flow cytometry analysis (reference value: 17.45%); assay type: functional; conditions: dose 0-8 µM
[17] = target: T3, Estrogen receptor (Homo sapiens, UniProt P03372); assay: Antagonist activity at ERalpha (unknown origin) expressed in HEK293T cells co-expressing ERbeta and ERE-luciferase reporter assessed as reduction in relative light unit incubated for 24 hrs by dual-luciferase reporter assay; assay type: cell-based
T3 sequence (P03372 whole entry): T1 sequence (whole entry)

[18] = tested on: LCC2; assay: Induction of cell cycle arrest in human LCC2 cells assessed as accumulation of cells at G2/M phase incubated for 48 hrs by flow cytometry analysis; assay type: functional, cell-based; conditions: dose 6-24 µM
[19] = target: T2, Tubulin (Homo sapiens); assay: Disruption of microtubule network in human MCF7 cells assessed as ruptured microtubule network at 2 uM incubated for 48 hrs by DAPI staining based confocal laser scanning microscopic analysis; assay type: cell-based
[20] = target: T2, Tubulin (Homo sapiens); assay: Disruption of microtubule network in human LCC2 cells assessed as chaotic microtubule network at 4 uM incubated for 48 hrs by DAPI staining based confocal laser scanning microscopic analysis; assay type: cell-based

Chain of Estrogen receptor beta (Homo sapiens) (Q92731 whole entry): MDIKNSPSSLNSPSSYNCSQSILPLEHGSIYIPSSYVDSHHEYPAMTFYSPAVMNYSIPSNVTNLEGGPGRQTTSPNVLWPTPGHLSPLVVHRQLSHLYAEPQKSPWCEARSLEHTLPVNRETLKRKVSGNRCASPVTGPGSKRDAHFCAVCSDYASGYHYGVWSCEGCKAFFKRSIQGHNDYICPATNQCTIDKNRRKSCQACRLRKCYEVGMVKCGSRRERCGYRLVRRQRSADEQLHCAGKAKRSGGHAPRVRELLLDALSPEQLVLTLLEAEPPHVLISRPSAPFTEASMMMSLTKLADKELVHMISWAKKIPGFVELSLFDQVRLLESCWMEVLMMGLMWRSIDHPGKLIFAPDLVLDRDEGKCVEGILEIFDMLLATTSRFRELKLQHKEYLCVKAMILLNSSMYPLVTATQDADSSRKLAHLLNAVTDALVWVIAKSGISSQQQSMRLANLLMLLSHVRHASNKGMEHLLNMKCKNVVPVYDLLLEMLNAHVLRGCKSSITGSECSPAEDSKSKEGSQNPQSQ

Row | tubulin polymerization inhibition (active/not active) [5] | IC50 [7] | IC50 [12] | Activity [14] | Activity [15] | IC50 [17] | Activity [19] | Activity [20] | Structure (SMILES) | selectivity ratio [1] | RBA [2] | Activity [3] | RBA [4] | IC50 at 72 h [6] | Selectivity ratio [8] | IC50 [9] | IC50 [10] | IC50 [11] | IC50 [13] | Activity [16] | Activity [18]
1 | inactive | > 31 µM | > 31 µM | – | – | – | – | – | O=S(=O)(Oc1ccccc1)C1CC2OC1C(c1ccc(O)cc1)=C2c1ccc(O)cc1 (stereo not given) | > 4.11 | – | inactive | – | > 60 µM | – | – | – | 25 µM | – | – | –
2 | Active | 0.85 µM | 1.47 µM | Active | Active | 1.01 µM | Active | Active | N#C[Se]CCCCCC(=O)Nc1ccc(C2=C(c3ccc(O)cc3)C3CC(S(=O)(=O)Oc4ccccc4F)C2O3)cc1 (stereo not given) | 63 | 17.4% | – | 0.39% | 17.6 µM | 44.5 | 3.4 µM | 0.28 µM | 6.13 µM | 1.56 µM | 27.55% | Dose-Dependent Effect

Row | Structure (SMILES) | tubulin polymerization inhibition (active/not active) [5] | IC50 [7] | IC50 [12] | Activity [14] | Activity [15] | IC50 [17] | Activity [19] | Activity [20] | selectivity ratio [1] | RBA [2] | Activity [3] | RBA [4] | IC50 at 72 h [6] | Selectivity ratio [8] | IC50 [9] | IC50 [10] | IC50 [11] | IC50 [13] | Activity [16] | Activity [18]
3 | N#C[Se]CCCCCC(=O)Nc1ccccc1 | Active | 4.28 µM | – | – | – | – | – | – | 0.64 | 0.04% | inactive | 0.01% | 2.26 µM | 7 | 0.36 µM | 3.54 µM | – | – | – | –
4 | CC/C(=C(\c1ccc(O)cc1)c1ccc(OCCN(C)C)cc1)c1ccccc1 [AFIMOXIFENE] | – | – | 9.13 µM | – | – | – | – | – | – | – | – | – | – | – | 17.2 µM | – | 20.9 µM | 8.9 µM | – | –
